Results as given in patent US8053461B2, “Oxindole derivative” (Theravalues Corporation, priority 2006, dated 2011).
Counter-ions that a name gives are not always drawn.

How the values were obtained:
[1] = target: T1, recombinant GST-Pim-1 kinase (Homo sapiens, UniProt P11309); assay: In vitro system for measurement of Pim-1 kinase activity (phosphorylation of biotinylated p21 peptide, OD450); assay type: biochemical; details: ATP 10 μM, 25° C., 30 minutes; read-out: 50% inhibitory concentration (IC50) of Pim-1 kinase activity
T1 construct: GST
T1 sequence (P11309 whole entry): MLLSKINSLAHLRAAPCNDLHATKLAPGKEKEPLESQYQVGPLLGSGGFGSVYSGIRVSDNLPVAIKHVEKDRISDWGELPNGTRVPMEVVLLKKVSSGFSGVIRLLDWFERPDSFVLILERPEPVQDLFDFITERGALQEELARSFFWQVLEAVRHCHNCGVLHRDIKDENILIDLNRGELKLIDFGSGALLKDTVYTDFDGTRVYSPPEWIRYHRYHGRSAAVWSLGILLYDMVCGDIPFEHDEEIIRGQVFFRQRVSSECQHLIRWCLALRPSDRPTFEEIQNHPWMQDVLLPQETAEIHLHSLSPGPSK
Experimental: The sensitivity (IC50: inhibitory concentration of 50% of activity) and concentration dependence of these novel compounds to inhibition of Pim-1 activity were studied (using the following system).
In Vitro System for Measurement of Pim-1 Kinase Activity:
(1) Add a biotinylated p21 peptide (1 mM) as a substrate to be phosphorylated by Pim-1 and a recombinant GST-Pim-1 kinase (18 μg/ml) to a kinase buffer.
(2) Add a test compound (dissolved in 2% DMSO) or 2% DMSO (a solvent control) thereto.
(3) Add ATP (10 μM) thereto and incubate the mixture at 25° C. for 30 minutes (initiate a kinase reaction).
(4) Add EDTA (10 mM) thereto to stop the reaction.
(5) Add 10 μl of the kinase reaction mixture to a 96-well plate (which has been blocked in advance) coated with avidin, and incubate the plate at room temperature for 60 minutes.
(6) Wash the wells with a washing buffer three times.
(7) Add a diluted solution (1:500) of an antibody which recognizes phosphorylated p21 (Thr145) to the wells in an amount of 100 μl per well and incubate the plate for 90 minutes.
(8) Wash the wells with a washing buffer three times.
(9) Add a diluted solution (1:2000) of a secondary antibody which […] to the wells in an amount of 100 μl per well and incubate the plate for 60 minutes.
(10) Wash the wells with a washing buffer five times.
(11) Add a substrate (TMB) for peroxidase to the wells and incubate the plate for 8 minutes. Then, stop the reaction with 2 M H2SO4 and perform the colorimetric determination using a microplate reader (OD450).

[2] = system: pancreatic cancer cell line (BxPC-3); assay: Cytotoxicity, MTS method, time course; assay type: cell-based; details: FIG. 4
Experimental: (§1) Various cancer cell lines were seeded in 96-well plates at a density of 3 to 5000 cells per well, and on the following day, any of the novel compounds was added thereto such that the final concentrations of the compounds were 0 to 100 μM (the concentration of the solvent DMSO was 0.5%) and the plates were incubated for 24 to 72 hours. The cytotoxicity to cancer cells can be examined by calculating the viable cell count by the MTS method (CellTiter 96 Aqueous One Solution Cell Proliferation Assay, Promega) after incubation. Here, the MTS method is a viable cell count calculation method using the fact that a tetrazolium compound (MTS) is converted into a chromogenic formazan product by an oxidoreductase of viable cells. In the measurement method, to each well of a 96-well plate containing 100 μl of a culture medium and sample cells, 20 μl of CellTiter 96 Aqueous One Solution Reagent is added and the plate was incubated in an incubator at 37° C. for 90 to 120 minutes, and then, the absorbance at 490 nm is measured using a 96-well plate reader.

[3] = system: esophageal squamous cell carcinoma cell line (T.Tn); assay: Cytotoxicity, MTS method; assay type: cell-based
Experimental: as §1

[4] = system: lung cancer cell line (A549); assay: Cytotoxicity, MTS method; assay type: cell-based
Experimental: as §1

[5] = system: prostate cancer cell line (PC-3); assay: Cytotoxicity, MTS method, time course; assay type: cell-based; details: time course observation of viable cell count, FIG. 3
Experimental: as §1

[6] = system: oral squamous cell carcinoma cell line (HSC-3); assay: Cytotoxicity, MTS method; assay type: cell-based; details: at 100 μM and 10 μM, even at 1 μM to some cell lines, FIG. 2
Experimental: as §1

[7] = system: normal renal cell line (293); assay: Cytotoxicity, MTS method; assay type: cell-based; details: at 100 μM and 10 μM, even at 1 μM to some cell lines, FIG. 2
Experimental: as §1

[8] = system: uterine cancer cell line (HeLa); assay: Cytotoxicity, MTS method; assay type: cell-based; details: at 100 μM and 10 μM, even at 1 μM to some cell lines, FIG. 2
Experimental: as §1

[9] = system: pancreatic cancer cell line (MiaPaCa-2); assay: Cytotoxicity, MTS method; assay type: cell-based; details: at 100 μM and 10 μM, even at 1 μM to some cell lines, FIG. 2
Experimental: as §1

Structure (SMILES): CC(=O)N1C(=O)/C(=C/c2ccc(/C=C3/C(=O)N(C(C)=O)c4ccccc43)o2)c2ccccc21 [compound (2), (3E)-1-acetyl-3-[((5E)-((1-acetyl-2-oxoindolin-3-ylidene)methyl)furan-2-yl)methylene]indolin-2-one]
- IC50 [1]: 10 nM
- cell proliferation inhibitory effect and cell lethal effect [2]: has a cell proliferation inhibitory effect and a cell lethal effect
- cell proliferation inhibitory effect and cell lethal effect ([3]; esophageal squamous cell carcinoma cell line (T.Tn), time course, FIG. 4): has a cell proliferation inhibitory effect and a cell lethal effect
- cell proliferation inhibitory effect and cell lethal effect ([4]; lung cancer cell line (A549), time course, FIG. 4): has a cell proliferation inhibitory effect and a cell lethal effect

Structure (SMILES): CC(=O)N1C(=O)/C(=C/c2ccc(/C=C3/C(=O)Nc4ccccc43)o2)c2ccccc21 [compound (3), (3E)-3-((5-((E)-(1-acetyl-2-oxoindolin-3-ylidene)methyl)furan-2-yl)methylene)indolin-2-one]
- IC50 [1]: 800 nM

Structure (SMILES): O=C1Nc2ccccc2/C1=C\c1ccc(/C=C2/C(=O)Nc3ccccc32)o1 [compound (1), (3E)-3[(5-((E)-(2-oxoindolin-3-ylidene)methyl)furan-2-yl)methylene]indoline-2-one]
- IC50 [1]: 50 nM
- cell lethal effect [5]: has a cell lethal effect
- cytotoxicity ([3]; T.Tn, at 100 μM and 10 μM, even at 1 μM to some cell lines, FIG. 2): remarkable cytotoxicity
- cytotoxicity [6]: remarkable cytotoxicity
- cytotoxicity [7]: remarkable cytotoxicity
- cytotoxicity [8]: remarkable cytotoxicity
- cytotoxicity [9]: remarkable cytotoxicity
- cytotoxicity ([4]; A549, at 100 μM and 10 μM, even at 1 μM to some cell lines, FIG. 2): remarkable cytotoxicity

Structure (SMILES): CC(=O)N1C(=O)/C(=C/c2ccc(/C=C3/C(=O)Nc4cc(C(=O)O)ccc43)o2)c2ccccc21 [compound (10), (3E)-3-((5-((E)-(1-acetyl-2-oxoindolin-3-ylidene)methyl)furan-2-yl)methylene)-2-oxoindoline-6-carboxylic acid sodium salt]
- IC50 [1]: 580 nM

Structure (SMILES): CCCC(=O)N1C(=O)/C(=C/c2ccc(/C=C3/C(=O)N(C(=O)CCC)c4ccccc43)o2)c2ccccc21 [compound (7), (3E)-1-butyryl-3-[((5E)-((1-butyryl-2-oxoindolin-3-ylidene)methyl)furan-2-yl)methylene]indolin-2-one]
- IC50 [1]: 26 nM

Structure (SMILES): CC(=O)N1C(=O)/C(=C/c2ccc(/C=C3/C(=O)Nc4ccc(C(=O)O)cc43)o2)c2ccccc21 [compound (9), (3E)-3-((5-((E)-(1-acetyl-2-oxoindolin-3-ylidene)methyl)furan-2-yl)methylene)-2-oxoindoline-5-carboxylic acid sodium salt]
- IC50 [1]: 1400 nM
